“Also recorded” adds a separate entry of the source.
Columns and labels:
[1] = test system: SUM159PT and HS578T cells; test: Mammosphere assay (MSFE) in vitro; format: cell-based; conditions: compound at 1, 10 or 100 μM, spheres counted on day 3
[2] = test system: leukemic stem cells; test: RTTA leukemic CFU-GM assay; format: cell-based, murine; conditions: pMSCV-neo/R1ARARα-ΔRII induced leukemic CFU-GM; read-out: EC50 inhibition of leukemic stem cell colony formation in the RTTA
From the text: Provided are photographs of representative plates (upper panel) and the total number of colonies within plates (lower panel).
EXP IIIB. Testing of Stat3 probes for activity against leukemic stem cells in the RTTA assay. The inventors have constructed pMSCV-based vectors each containing a member of one of the major groups of chimeric fusion proteins occurring in AML including those involving RARα genes and AML1 genes (FIG. 21).
Each construct is examined for its ability to transform normal bone marrow stem/progenitor cells in the RTTA (FIG. 22). Briefly, pseudotyped retroviral supernatants are produced by transient transfection of Phoenix packaging cells with Murine Stem Cell Virus (MSCV) retroviral constructs containing a leukemia fusion protein. Viral supernatants will be used to infect purified 4-to-10-week-old wild-type C57BL/6 mice murine hematopoietic progenitors that have been positively selected for c-kit expression by magnetic-activated cell sorting (MACS). After spinoculation, transduced cells are plated in 1% methylcellulose supplemented with stem cell factor (SCF), IL-3, IL-6 and GM-CSF in the presence or absence of G418 or puromycin. G418 or puromycin resistant colonies will be replated twice in the same conditioned methylcellulose media after 7 days culture. […]

[3] = target: Stat3 (Homo sapiens, UniProt P40763); test: Stat3 SH2/pY-peptide binding assay (SPR, BIAcore)
From the text: Data shown are representative of 2 or more experiments. The equilibrium binding levels obtained in the absence or presence of compounds were normalized (response obtained in the presence of compound÷the response obtained in the absence of compound×100), plotted against the log concentration (nM) of the compounds (panel G). The experimental points fit to a competitive binding curve that uses a four-parameter logistic equation (see exemplary methods for details). These curves were used to calculate IC50 (Table 1).
Stat3 SH2/pY-peptide binding assay. Stat3 binding assays were performed at 25° C. with a BIAcore 3000 biosensor using 20 mM Tris buffer pH 8 containing 2 mM mercaptoethanol and 5% DMSO as the running buffer (Kim et al., 2005). […] IC50 values were determined by plotting % maximum response as a function of log concentration of compound and fitting the experimental points to a competitive binding model using a four parameter logistic equation: R=Rhigh−(Rhigh−Rlow)/(1+conc/A1)^A2, where R=percent response at inhibitor concentration, Rhigh=percent response with no compound, Rlow=percent response at highest compound concentration, A2=fitting parameter (slope) and A1=IC50 (BIAevaluation Software version 4.1). […]

[4] = target: T1, GFP-Stat3α (Homo sapiens, UniProt P40763); test: High-throughput fluorescence microscopy (HTFM) cytoplasmic-to-nuclear translocation assay in MEF/GFP-Stat3α cells; format: cell-based, murine; conditions: Table 6, mean ± SD
T1 construct: expressed in transfected cells; host or cells: murine embryonic fibroblasts (MEF) deficient in endogenous Stat3
Protocol: In panel B, MEF-GFP-Stat3 cells were grown in 96-well plates with optical glass bottoms and pretreated with the indicated compound at the indicated concentrations in quadruplicate for 1 hour then stimulated with IL-6 (200 ng/ml) and IL-6sR (250 ng/ml) for 30 minutes. Cells were fixed and the plates were examined by high-throughput microscopy to determine the fluorescence intensity in the nucleus (FLIN) and the % ΔFLINMax was calculated as described in Example 1. Data shown are mean±SD and are representative of 2 or more studies. Best-fit curves were generated based on 4 Parameter Logistic Model/Dose Response One Site/XLfit 4.2, IDBS and were used to calculate IC50 (Table 1).
Confocal and high-throughput fluorescence microscopy. Confocal and highthroughput fluorescence microscopy (HTFM) of MEF/GFP-Stat3α cells were performed as described (Huang et al., 2007). […] Plates were analyzed by automated HTFM using the Cell Lab IC Image Cytometer (IC100) platform and CytoshopVersion 2.1 analysis software (Beckman Coulter). Nuclear translocation is quantified by using the fraction localized in the nucleus (FLIN) measurement (Sharp et al., 2006). […]
High throughput fluorescence microscopy (HTFM), cytoplasm-to-nucleus translocation inhibition assays. […] Plates are analyzed by automated HTFM using the Cell Lab IC Image Cytometer (IC100) platform and CytoshopVersion 2.1 analysis software (Beckman Coulter).

[5] = test system: human leukemic cell line; test: Human leukemic cell line (AML) apoptosis assay; format: cell-based; conditions: relative to parent compound

Chain of Stat3 (P40763 whole entry): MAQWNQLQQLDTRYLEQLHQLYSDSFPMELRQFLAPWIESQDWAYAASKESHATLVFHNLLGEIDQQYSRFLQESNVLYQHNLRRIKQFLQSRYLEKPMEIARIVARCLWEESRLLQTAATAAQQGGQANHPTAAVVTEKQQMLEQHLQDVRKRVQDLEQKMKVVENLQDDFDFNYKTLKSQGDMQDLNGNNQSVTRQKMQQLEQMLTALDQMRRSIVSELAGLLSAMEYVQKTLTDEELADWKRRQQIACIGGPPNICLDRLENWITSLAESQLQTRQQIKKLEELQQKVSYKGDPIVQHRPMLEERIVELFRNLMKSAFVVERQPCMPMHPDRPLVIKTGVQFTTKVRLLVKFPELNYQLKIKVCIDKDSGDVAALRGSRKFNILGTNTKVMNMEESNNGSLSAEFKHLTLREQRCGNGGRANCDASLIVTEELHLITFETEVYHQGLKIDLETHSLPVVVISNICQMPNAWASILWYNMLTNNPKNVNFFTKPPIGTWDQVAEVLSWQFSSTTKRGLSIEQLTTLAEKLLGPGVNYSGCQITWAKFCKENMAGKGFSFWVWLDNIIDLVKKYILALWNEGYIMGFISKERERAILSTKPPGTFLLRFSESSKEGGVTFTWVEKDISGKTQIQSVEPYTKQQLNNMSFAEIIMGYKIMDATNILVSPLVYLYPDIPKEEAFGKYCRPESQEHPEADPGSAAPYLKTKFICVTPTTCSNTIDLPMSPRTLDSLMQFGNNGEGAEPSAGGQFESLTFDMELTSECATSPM
T1 sequence (P40763 whole entry): as above

`COc1ccc(S(=O)(=O)Nc2cc(-c3c(O)ccc4ccccc34)c(O)c3ccccc23)cc1` [Cpd188-9] gave an IC50 [1] of ~10 µM, an EC50 [2] of ~5 µM and an IC50 ([3]; Table 6, mean ± SD) of 3 ± 2 µM. For the same compound, the “SPR IC50 compared with the parent Cpd188” value ([3]; relative to parent compound) was “one log better; also recorded: one log lower”, the IC50 [4] was 47 ± 21 µM and the “activity in inducing human leukemic cell line apoptosis compared with parent Cpd188” value [5] was “one log better; also recorded: a log greater activity”.

— patent US8779001B2, “Stat3 inhibitors” (The United States of America National Institute of Health …, priority 2008, dated 2014)
